Reference: ChEMBL document CHEMBL1201862, “PubChem BioAssay data set” (2004)
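Interpolation was linear, between the two tested concentrations surrounding the appropriate level; five concentrations were tested over 48 hours in 96-well plates. Abbreviation: GI50, concentration required for 50% inhibition of growth.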 The source made the active and inactive calls. Cut-off read from the data, not from the text of the source: active = GI50 up to about 1.1 µM and inactive = higher.

Assays:
Assay in all cases: NCI anticancer screen, dose series, 48 h
OVCAR-8 = tested on: OVCAR-8
NCI-H460 = tested on: NCI-H460
SK-MEL-5 = tested on: SK-MEL-5
PC-3 = tested on: PC-3
COLO 205 = tested on: COLO 205
RPMI-8226 = tested on: RPMI-8226
LOX IMVI = tested on: LOX IMVI
EKVX = tested on: EKVX
NCI-H522 = tested on: NCI-H522
NCI-H23 = tested on: NCI-H23
OVCAR-4 = tested on: OVCAR-4
Hs-578T = tested on: Hs-578T
U-251 = tested on: U-251
SF-268 = tested on: SF-268
SNB-19 = tested on: SNB-19
SK-OV-3 = tested on: SK-OV-3
SK-MEL-28 = tested on: SK-MEL-28
KM12 = tested on: KM12
SNB-75 = tested on: SNB-75
786-0 = tested on: 786-0

Measured: GI50

CC(NC(NC(C)C12CC3CC(CC(C3)C1)C2)=C(C(Cl)=C(Cl)Cl)[N+](=O)[O-])C12CC3CC(CC(C3)C1)C2 (stereo not given)
inactive: OVCAR-8 2.77 µM | NCI-H460 4.36 µM | SK-MEL-5 13.2 µM | PC-3 8.3 µM | COLO 205 8.51 µM | RPMI-8226 > 36.7 µM | LOX IMVI 9.95 µM | EKVX 11.3 µM | NCI-H522 7.11 µM | NCI-H23 7.96 µM | OVCAR-4 8.3 µM | Hs-578T 3.83 µM | U-251 3.38 µM | SF-268 21.8 µM | SNB-19 30.2 µM | SK-OV-3 71.1 µM | SK-MEL-28 26.4 µM | KM12 47.3 µM | SNB-75 43.4 µM | 786-0 13 µM

CCNc1nc2c(ncn2C2CC(O)C(COP(=O)(O)O)O2)c(=O)[nH]1 (stereo not given)
inactive: OVCAR-8 > 100 µM | NCI-H460 > 100 µM | SK-MEL-5 > 100 µM | PC-3 > 100 µM | COLO 205 > 100 µM | RPMI-8226 > 100 µM | LOX IMVI > 100 µM | EKVX > 100 µM | NCI-H522 > 100 µM | NCI-H23 > 100 µM | OVCAR-4 > 100 µM | Hs-578T > 100 µM | U-251 > 100 µM | SF-268 > 100 µM | SNB-19 > 100 µM | SK-OV-3 > 100 µM | SK-MEL-28 > 100 µM | KM12 > 100 µM | SNB-75 > 100 µM | 786-0 > 100 µM

CC(C)(C)OC(=O)NCC(c1c[nH]c2ccccc12)c1c[nH]c2ccccc12
inactive: OVCAR-8 16.7 µM | NCI-H460 14.9 µM | SK-MEL-5 13 µM | PC-3 15.8 µM | COLO 205 14.6 µM | RPMI-8226 6.62 µM | LOX IMVI 17.9 µM | EKVX 12.7 µM | NCI-H522 18.2 µM | NCI-H23 18.4 µM | OVCAR-4 12.9 µM | Hs-578T 24.1 µM | U-251 16.1 µM | SF-268 17.1 µM | SNB-19 16.9 µM | SK-OV-3 16.8 µM | SK-MEL-28 18.1 µM | KM12 13.3 µM | SNB-75 14.7 µM | 786-0 16.1 µM

O=C(c1ccccc1)c1ccc2c(c1)nc1n2C(c2c(F)cccc2F)SC1 (stereo not given)
inactive: OVCAR-8 24.5 µM | NCI-H460 17.1 µM | SK-MEL-5 12.9 µM | PC-3 16.3 µM | COLO 205 24.1 µM | RPMI-8226 30.3 µM | LOX IMVI 25.6 µM | EKVX 11.5 µM | NCI-H522 34.7 µM | NCI-H23 28.8 µM | OVCAR-4 21.7 µM | Hs-578T 59 µM | U-251 28.8 µM | SF-268 49.9 µM | SNB-19 32.1 µM | SK-OV-3 30.5 µM | SK-MEL-28 32.1 µM | KM12 11.2 µM | SNB-75 18.9 µM | 786-0 27.4 µM

Clc1nc(Cl)c(Cl)c(Cl)n1
inactive: OVCAR-8 26.4 µM | NCI-H460 21.6 µM | SK-MEL-5 17.6 µM | PC-3 16.6 µM | COLO 205 8.57 µM | RPMI-8226 43.3 µM | LOX IMVI 11.3 µM | EKVX 32.1 µM | NCI-H522 15.9 µM | NCI-H23 18.5 µM | OVCAR-4 23 µM | Hs-578T 20.9 µM | U-251 16.7 µM | SF-268 17.2 µM | SNB-19 22.3 µM | SK-OV-3 16.6 µM | SK-MEL-28 19.6 µM | KM12 13.6 µM | SNB-75 17.8 µM | 786-0 19.7 µM
